# Assays:
# Format in all cases: cell-based
# [1] = target: proteins of HEK293T cells transiently overexpressing caspase-6 (Homo sapiens, UniProt O00541); conditions: protein PES1 (O00541); exp_ref Probe; analysis C6
# [2] = target: proteins of HEK293T cells transiently overexpressing caspase-6 (Homo sapiens, UniProt P00338); conditions: Probe; protein LDHA P00338
# [3] = target: proteins of HEK293T cells transiently overexpressing caspase-6 (Homo sapiens, UniProt P0DMV8); conditions: protein HSPA1A (P0DMV8)
# Chain of proteins of HEK293T cells transiently overexpressing caspase-6 (Homo sapiens, UniProt P0DMV8) (P0DMV8 whole entry): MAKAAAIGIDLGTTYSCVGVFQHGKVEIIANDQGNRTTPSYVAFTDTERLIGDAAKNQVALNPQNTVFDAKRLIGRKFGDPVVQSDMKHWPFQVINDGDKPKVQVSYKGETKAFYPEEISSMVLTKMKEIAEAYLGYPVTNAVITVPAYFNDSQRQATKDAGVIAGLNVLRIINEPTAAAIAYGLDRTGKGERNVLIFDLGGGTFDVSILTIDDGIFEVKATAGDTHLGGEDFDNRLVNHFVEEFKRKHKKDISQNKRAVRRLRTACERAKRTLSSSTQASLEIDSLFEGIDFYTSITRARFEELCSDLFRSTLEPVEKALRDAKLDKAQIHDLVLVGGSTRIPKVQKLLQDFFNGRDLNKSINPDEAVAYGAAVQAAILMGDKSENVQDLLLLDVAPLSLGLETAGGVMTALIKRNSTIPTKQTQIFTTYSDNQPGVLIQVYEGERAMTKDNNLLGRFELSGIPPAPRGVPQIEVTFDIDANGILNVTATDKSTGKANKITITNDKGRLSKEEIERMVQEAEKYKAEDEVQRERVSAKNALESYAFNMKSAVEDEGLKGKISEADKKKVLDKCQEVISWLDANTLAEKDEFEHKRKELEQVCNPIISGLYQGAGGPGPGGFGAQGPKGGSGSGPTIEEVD
# [4] = target: proteins of HEK293T cells transiently overexpressing caspase-6 (Homo sapiens, UniProt P31930); conditions: Probe; protein UQCRC1 P31930
# Chain of proteins of HEK293T cells transiently overexpressing caspase-6 (Homo sapiens, UniProt P31930) (P31930 35-480): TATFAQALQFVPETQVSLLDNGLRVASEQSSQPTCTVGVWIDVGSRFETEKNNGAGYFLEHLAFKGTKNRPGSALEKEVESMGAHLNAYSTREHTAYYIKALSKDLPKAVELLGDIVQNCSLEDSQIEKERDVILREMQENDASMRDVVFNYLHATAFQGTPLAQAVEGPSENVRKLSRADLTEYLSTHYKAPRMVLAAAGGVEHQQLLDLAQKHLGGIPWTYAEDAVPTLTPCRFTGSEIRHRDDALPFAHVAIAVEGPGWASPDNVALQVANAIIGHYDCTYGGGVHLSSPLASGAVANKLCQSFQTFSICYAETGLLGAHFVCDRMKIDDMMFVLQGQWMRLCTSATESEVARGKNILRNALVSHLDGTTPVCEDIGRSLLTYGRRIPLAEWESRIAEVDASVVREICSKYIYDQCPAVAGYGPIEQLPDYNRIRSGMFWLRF
# [5] = target: proteins of HEK293T cells transiently overexpressing caspase-6 (Homo sapiens, UniProt P61978); conditions: protein HNRNPK (P61978)
# [6] = target: proteins of HEK293T cells transiently overexpressing caspase-6 (Homo sapiens, UniProt P63241); conditions: exp_ref Probe; protein EIF5A (P63241); analysis C6
# Chain of proteins of HEK293T cells transiently overexpressing caspase-6 (Homo sapiens, UniProt P63241) (P63241 whole entry): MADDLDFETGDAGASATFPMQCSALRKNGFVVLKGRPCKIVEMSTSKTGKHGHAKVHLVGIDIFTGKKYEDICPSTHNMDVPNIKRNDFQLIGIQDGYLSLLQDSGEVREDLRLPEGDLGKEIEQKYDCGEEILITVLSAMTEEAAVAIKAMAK
# [7] = target: T1, proteins of HEK293T cells transiently overexpressing caspase-6 (Homo sapiens, UniProt Q92945); conditions: protein KHSRP (Q92945)
# T1 sequence (Q92945 1-711): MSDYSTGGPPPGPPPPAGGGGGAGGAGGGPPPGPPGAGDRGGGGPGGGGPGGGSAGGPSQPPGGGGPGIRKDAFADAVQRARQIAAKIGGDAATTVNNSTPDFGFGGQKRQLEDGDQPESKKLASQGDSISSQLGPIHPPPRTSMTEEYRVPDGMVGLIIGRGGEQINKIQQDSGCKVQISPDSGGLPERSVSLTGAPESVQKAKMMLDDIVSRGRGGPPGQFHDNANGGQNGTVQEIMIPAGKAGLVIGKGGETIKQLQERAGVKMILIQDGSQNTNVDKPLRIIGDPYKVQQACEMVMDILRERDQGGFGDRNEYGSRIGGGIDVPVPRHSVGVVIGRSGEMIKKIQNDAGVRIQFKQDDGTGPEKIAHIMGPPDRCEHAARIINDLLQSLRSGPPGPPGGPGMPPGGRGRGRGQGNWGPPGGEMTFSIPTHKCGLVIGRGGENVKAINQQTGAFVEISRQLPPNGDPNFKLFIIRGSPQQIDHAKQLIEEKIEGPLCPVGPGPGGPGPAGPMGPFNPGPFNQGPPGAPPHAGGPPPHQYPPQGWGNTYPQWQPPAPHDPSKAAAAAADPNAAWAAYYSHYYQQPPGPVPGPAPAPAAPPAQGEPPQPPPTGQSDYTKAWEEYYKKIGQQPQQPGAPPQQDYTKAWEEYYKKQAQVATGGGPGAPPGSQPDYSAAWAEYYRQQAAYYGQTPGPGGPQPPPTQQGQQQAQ
# [8] = target: T2, proteins of HEK293T cells transiently overexpressing caspase-6 (Homo sapiens, UniProt Q9BQG0); conditions: protein MYBBP1A (Q9BQG0)
# T2 sequence (Q9BQG0 1-1328): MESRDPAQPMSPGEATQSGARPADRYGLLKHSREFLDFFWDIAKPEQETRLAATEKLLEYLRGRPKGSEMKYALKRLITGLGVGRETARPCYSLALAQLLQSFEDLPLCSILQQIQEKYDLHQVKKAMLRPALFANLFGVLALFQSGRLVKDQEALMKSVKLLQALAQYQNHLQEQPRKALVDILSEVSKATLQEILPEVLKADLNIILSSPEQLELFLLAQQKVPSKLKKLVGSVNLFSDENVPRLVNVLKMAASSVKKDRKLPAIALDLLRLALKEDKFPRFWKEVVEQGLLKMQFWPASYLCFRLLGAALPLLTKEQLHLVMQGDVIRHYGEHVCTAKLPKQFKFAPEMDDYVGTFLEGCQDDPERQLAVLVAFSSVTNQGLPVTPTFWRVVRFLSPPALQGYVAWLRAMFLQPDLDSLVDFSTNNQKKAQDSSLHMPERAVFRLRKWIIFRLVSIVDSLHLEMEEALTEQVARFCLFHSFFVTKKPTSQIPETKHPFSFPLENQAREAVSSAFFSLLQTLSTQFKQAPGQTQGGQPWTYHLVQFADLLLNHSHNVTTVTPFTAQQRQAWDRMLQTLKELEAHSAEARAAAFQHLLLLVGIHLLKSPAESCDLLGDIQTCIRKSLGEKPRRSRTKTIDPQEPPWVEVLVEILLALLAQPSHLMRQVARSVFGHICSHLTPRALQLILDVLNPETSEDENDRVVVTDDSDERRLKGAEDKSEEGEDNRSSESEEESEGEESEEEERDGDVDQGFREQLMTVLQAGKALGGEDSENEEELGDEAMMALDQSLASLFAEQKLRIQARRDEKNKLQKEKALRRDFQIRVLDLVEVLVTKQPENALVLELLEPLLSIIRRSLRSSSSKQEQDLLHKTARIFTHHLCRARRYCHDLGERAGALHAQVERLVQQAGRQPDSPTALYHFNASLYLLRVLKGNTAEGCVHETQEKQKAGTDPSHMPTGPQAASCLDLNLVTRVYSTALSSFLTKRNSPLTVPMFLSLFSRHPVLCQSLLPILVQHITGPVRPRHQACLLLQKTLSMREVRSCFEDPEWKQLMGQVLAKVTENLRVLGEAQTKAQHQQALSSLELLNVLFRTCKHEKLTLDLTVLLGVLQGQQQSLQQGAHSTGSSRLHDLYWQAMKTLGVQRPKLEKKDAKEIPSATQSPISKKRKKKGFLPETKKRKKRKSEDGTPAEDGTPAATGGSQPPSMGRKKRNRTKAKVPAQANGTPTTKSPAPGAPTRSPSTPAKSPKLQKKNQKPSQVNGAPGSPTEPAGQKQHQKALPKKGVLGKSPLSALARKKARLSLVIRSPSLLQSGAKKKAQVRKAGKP
# [9] = target: proteins of HEK293T cells transiently overexpressing caspase-6 (Homo sapiens, UniProt Q9BZZ5); conditions: exp_ref Probe; protein API5 (Q9BZZ5); analysis C6
# Chain of proteins of HEK293T cells transiently overexpressing caspase-6 (Homo sapiens, UniProt Q9BZZ5) (Q9BZZ5 whole entry): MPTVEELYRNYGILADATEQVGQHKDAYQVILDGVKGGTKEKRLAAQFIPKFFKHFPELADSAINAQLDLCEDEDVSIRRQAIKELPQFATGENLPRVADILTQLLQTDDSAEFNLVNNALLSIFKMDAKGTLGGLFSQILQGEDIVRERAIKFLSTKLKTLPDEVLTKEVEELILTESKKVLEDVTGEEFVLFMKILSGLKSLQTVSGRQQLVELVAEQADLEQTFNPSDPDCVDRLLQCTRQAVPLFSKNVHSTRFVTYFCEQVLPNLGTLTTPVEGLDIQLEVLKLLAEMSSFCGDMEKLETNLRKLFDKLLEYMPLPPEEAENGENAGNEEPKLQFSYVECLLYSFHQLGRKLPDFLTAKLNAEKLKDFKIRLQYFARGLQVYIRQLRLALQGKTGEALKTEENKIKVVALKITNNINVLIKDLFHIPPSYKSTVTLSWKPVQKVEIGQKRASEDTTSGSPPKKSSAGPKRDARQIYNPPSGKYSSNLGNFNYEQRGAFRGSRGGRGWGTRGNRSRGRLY
# Chain of proteins of HEK293T cells transiently overexpressing caspase-6 (Homo sapiens, UniProt O00541) (O00541 whole entry, looked up): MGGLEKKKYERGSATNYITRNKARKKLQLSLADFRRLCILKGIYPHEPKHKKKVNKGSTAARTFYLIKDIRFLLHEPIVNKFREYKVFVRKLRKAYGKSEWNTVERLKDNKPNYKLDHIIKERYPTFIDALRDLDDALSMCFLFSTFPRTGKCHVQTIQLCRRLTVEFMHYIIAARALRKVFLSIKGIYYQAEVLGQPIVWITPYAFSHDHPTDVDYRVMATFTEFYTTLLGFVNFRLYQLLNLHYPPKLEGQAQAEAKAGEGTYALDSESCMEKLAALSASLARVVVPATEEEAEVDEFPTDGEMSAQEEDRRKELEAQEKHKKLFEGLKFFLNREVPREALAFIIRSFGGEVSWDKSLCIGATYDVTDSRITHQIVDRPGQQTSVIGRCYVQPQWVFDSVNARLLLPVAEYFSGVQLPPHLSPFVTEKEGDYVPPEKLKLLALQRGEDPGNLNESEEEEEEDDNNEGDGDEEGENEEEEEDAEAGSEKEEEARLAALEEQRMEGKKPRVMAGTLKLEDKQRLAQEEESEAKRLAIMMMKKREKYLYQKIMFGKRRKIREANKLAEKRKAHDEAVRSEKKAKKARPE
structure (smiles),measurement,setting,value
C#CCOc1ccc([C@@H]2C[C@@H](C(=O)Nc3ccc(OC(F)(F)F)cc3)CN(S(=O)(=O)C=C)C2)cc1 (relative stereo) [13-t],enrich.exp.med,[1],1.47
same,enrich.exp.med,[2],-0.5222
same,enrich.exp.med,"[3]; exp_ref Probe, analysis C6",0.4797
same,enrich.exp.med.lin,[3],1.394
same,enrich.exp.med.log2,[3],0.4797
same,enrich.exp.med,[4],-0.9693
same,enrich.exp.med,"[5]; exp_ref Probe, analysis C6",0.3594
same,enrich.exp.med.lin,[5],1.283
same,enrich.exp.med.log2,[5],0.3594
same,enrich.exp.med,[6],-0.3746
same,enrich.exp.med,"[7]; exp_ref Probe, analysis C6",0.3732
same,enrich.exp.med.lin,[7],1.295
same,enrich.exp.med.log2,[7],0.3732
same,enrich.exp.med,"[8]; exp_ref Probe, analysis C6",1.154
same,enrich.exp.med.lin,[8],2.225
same,enrich.exp.med.log2,[8],1.154
same,enrich.exp.med,[9],0.9484

# Source: paper PMC10176470, “Engaging a Non-catalytic Cysteine Residue Drives Potent and Selective Inhibition of Caspase-6” (Journal of the American Chemical Society, 2023)
